Assay results published in patent publication US20110144175A1, “METHOD FOR CONTROLLING DEGRADATION OF AGRICULTURAL CHEMICAL ACTIVE INGREDIENT” (priority 2008, published 2011).

Assay: Accelerated preservation test of dustable powder (Cyazofamid content by HPLC)
Format: physicochemical
Procedure: The dustable powder obtained by Example 1 or Comparative Example was subjected to an accelerated preservation at 54° C. for 14 days, and then the Cyazofamid content in the dustable powder was measured by an HPLC (high performance liquid chromatography) and degradation ratio (%) of Cyazofamid was calculated by the following formula. In this connection, the Cyazofamid content in the dustable powder preserved at 4° C. was measured at the time of measuring the Cyazofamid content in the dustable powder after accelerated preservation, and the value was used as the initial stage content. Degradation ratio (%)=(initial stage content−content after accelerated preservation)/initial stage content×100

| Substance | Degradation Ratio (%) of Cyazofamid |
| --- | --- |
| Epoxidized Soybean Oil | 5% |
| Polyoxyethylene Castor Oil | 7% |
